Test results as given in patent US20230278972A1, “SUBSTITUTED HALOALKYL SULFONANILIDE HERBICIDES” (FMC Corporation, priority 2020, published 2023).

Tests used:
Assay type in all cases: in vivo
soybean (Glycine max) = experiment: Test A1 postemergence, soybean; conditions: 0 to 100 scale (0 no effect, 100 complete control); for Soybean plant response rating: 31 g ai/ha, postemergence; for Plant response rating, Soybean: Postemergence, 125 g ai/ha, 10 days
Procedure, shortened: (§1)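 Plants were grown in a loam soil/sand blend, with test chemicals formulated in a non-phytotoxic solvent mixture containing surfactant. Preemergence treatment (corn) was a directed soil spray at planting. Postemergence treatment was applied to plants 2 to 10 cm tall at the one- to two-leaf stage.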

corn (Zea mays) = experiment: Test A1 preemergence, corn
Procedure, shortened: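 Seeds were first planted into a blend of loam soil and sand and given a preemergence directed soil spray. In parallel, pots of the same soil were sown for postemergence application once plants reached 2 to 10 cm and the one- to two-leaf stage. Both used surfactant-containing non-phytotoxic solvent formulations.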

[1] = system: Foxtail, Giant (giant foxtail, Setaria faberi); experiment: Test A1 preemergence, Foxtail, Giant
Procedure, shortened: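 Test compounds were formulated in a non-phytotoxic solvent mixture containing a surfactant. For preemergence, seeds sown in a loam soil–sand blend received a directed soil spray. For postemergence, potted plants in the same soil, 2 to 10 cm tall at the one- to two-leaf stage, were sprayed.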

kochia (Bassia scoparia) = experiment: Test A1 postemergence, kochia; conditions: 0 to 100 scale (0 no effect, 100 complete control); for Kochia plant response rating: 31 g ai/ha, postemergence; for Plant response rating, Kochia: Postemergence, 125 g ai/ha, 10 days
Procedure, shortened: as §1

rice (Oryza sativa) = experiment: Test B1 flooded paddy test, rice; conditions: 250 g ai/ha, Flood, applied to paddy water, 2-leaf stage, visually evaluated after 10 to 14 days
Source text: A dash (-) response means no test result.

[2] = 31 g ai/ha, 0 to 100 scale (0 no effect, 100 complete control)
[3] = 125 g ai/ha, 0 to 100 scale, 0 no effect, 100 complete control
[4] = 125 g ai/ha, 0 to 100 scale (0 no effect, 100 complete control)

COC1CCC2(CC1)CCN(c1cc(NS(=O)(=O)C(F)(F)F)c(C)cc1C)C2=O (stereo not drawn) [Compound 398]
Soybean plant response rating (soybean (Glycine max)): 30 | Plant response rating, Soybean (soybean (Glycine max)): 60 | Plant response rating, Corn (corn (Zea mays); [2]): 0 | Plant response rating, Corn (corn (Zea mays); [3]): 60 | Plant response rating, Foxtail, Giant [1, 2]: 90 | Plant response rating, Foxtail, Giant [1, 3]: 100 | Kochia plant response rating (kochia (Bassia scoparia)): 20 | Plant response rating, Kochia (kochia (Bassia scoparia)): 70 | Plant response rating, Rice (0 to 100 scale, 0 is no effect, 100 is complete control) (rice (Oryza sativa)): 30

Cc1cc(C)c(N2CCC3(CCC(C(F)(F)F)CC3)C2=O)cc1NS(=O)(=O)C(F)(F)F (stereo not drawn) [Compound 400]
Soybean plant response rating (soybean (Glycine max)): 50 | Plant response rating, Soybean (soybean (Glycine max)): 60 | Plant response rating, Corn (corn (Zea mays); [2]): 0 | Plant response rating, Corn (corn (Zea mays); [3]): 20 | Plant response rating, Foxtail, Giant [1, 2]: 20 | Plant response rating, Foxtail, Giant [1, 3]: 90 | Kochia plant response rating (kochia (Bassia scoparia)): 20 | Plant response rating, Kochia (kochia (Bassia scoparia)): 70 | Plant response rating, Rice (0 to 100 scale, 0 is no effect, 100 is complete control) (rice (Oryza sativa)): 25

Cc1cc(C)c(N(COC(=O)C(C)(C)C)S(=O)(=O)C(F)(F)F)cc1N1CCC2(CCC(C)CC2)C1=O (stereo not drawn) [Compound 401]
Soybean plant response rating (soybean (Glycine max)): 60 | Plant response rating, Soybean (soybean (Glycine max)): 70 | Plant response rating, Corn (corn (Zea mays); [2]): 0 | Plant response rating, Corn (corn (Zea mays); [3]): 20 | Plant response rating, Foxtail, Giant [1, 2]: 0 | Plant response rating, Foxtail, Giant [1, 3]: 0 | Kochia plant response rating (kochia (Bassia scoparia)): 10 | Plant response rating, Kochia (kochia (Bassia scoparia)): 30 | Plant response rating, Rice (0 to 100 scale, 0 is no effect, 100 is complete control) (rice (Oryza sativa)): 45

Cc1cc(C)c(N2CCC3(CCC(C)CC3)C2=O)cc1NS(=O)(=O)C(F)(F)F (stereo not drawn) [Compound 402]
Soybean plant response rating (soybean (Glycine max)): 60 | Plant response rating, Soybean (soybean (Glycine max)): 80 | Plant response rating, Corn (corn (Zea mays); [2]): 0 | Plant response rating, Corn (corn (Zea mays); [3]): 80 | Plant response rating, Foxtail, Giant [1, 2]: 90 | Plant response rating, Foxtail, Giant [1, 3]: 100 | Kochia plant response rating (kochia (Bassia scoparia)): 10 | Plant response rating, Kochia (kochia (Bassia scoparia)): 50 | Plant response rating, Rice (0 to 100 scale, 0 is no effect, 100 is complete control) (rice (Oryza sativa)): 0

Cc1cc(C)c(N2Cc3cccc(C)c3C2=O)cc1NS(=O)(=O)Cl [Compound 408]
Soybean plant response rating (soybean (Glycine max)): 40 | Plant response rating, Soybean (soybean (Glycine max)): 50 | Plant response rating, Corn (corn (Zea mays); [2]): 40 | Plant response rating, Corn (corn (Zea mays); [3]): 90 | Plant response rating, Foxtail, Giant [1, 2]: 100 | Plant response rating, Foxtail, Giant [1, 4]: 100 | Kochia plant response rating (kochia (Bassia scoparia)): 60 | Plant response rating, Kochia (kochia (Bassia scoparia)): 60 | Plant response rating, Rice (0 to 100 scale, 0 is no effect, 100 is complete control) (rice (Oryza sativa)): 65

CCOc1cccc2c1C(=O)N(c1cc(N(COC(=O)C(C)(C)C)S(=O)(=O)Cl)c(C)cc1C)C2 [Compound 414]
Soybean plant response rating (soybean (Glycine max)): 20 | Plant response rating, Soybean (soybean (Glycine max)): 30 | Plant response rating, Corn (corn (Zea mays); [2]): 0 | Plant response rating, Corn (corn (Zea mays); [3]): 10 | Plant response rating, Foxtail, Giant [1, 2]: 0 | Plant response rating, Foxtail, Giant [1, 4]: 0 | Kochia plant response rating (kochia (Bassia scoparia)): 1 | Plant response rating, Kochia (kochia (Bassia scoparia)): 50 | Plant response rating, Rice (0 to 100 scale, 0 is no effect, 100 is complete control) (rice (Oryza sativa)): 0

Cc1cc(C)c(N2Cc3cccc(Br)c3C2=O)cc1NS(=O)(=O)Cl [Compound 415]
Soybean plant response rating (soybean (Glycine max)): 10 | Plant response rating, Soybean (soybean (Glycine max)): 30 | Plant response rating, Corn (corn (Zea mays); [2]): 0 | Plant response rating, Corn (corn (Zea mays); [3]): 80 | Plant response rating, Foxtail, Giant [1, 2]: 80 | Plant response rating, Foxtail, Giant [1, 4]: 90 | Kochia plant response rating (kochia (Bassia scoparia)): 40 | Plant response rating, Kochia (kochia (Bassia scoparia)): 70 | Plant response rating, Rice (0 to 100 scale, 0 is no effect, 100 is complete control) (rice (Oryza sativa)): 10
